Reference: the OligoGym collection
“And” between values parts separate entries of the source, which are not always exact repeats. Equal entries are not always repeated. HELM strings list units from the 5' end as sugar, base in round brackets, then linkage (d deoxyribose, r ribose, m 2'-O-methyl, p phosphodiester). Strings are as the collection lists them, not checked against the first reports. ss, as = sense and antisense strand; [s4r] = 4'-thioribose

Conditions: siRNA
Also: test system not given here.

Substance	target mRNA knockdown
RNA1{r(A)p.r(A)p.r(A)p.r(G)p.r(C)p.r(G)p.r(G)p.m(U)p.m(G)p.r(G)p.r(A)p.r(U)p.m(C)p.r(A)p.r(G)p.r(C)p.r(U)p.r(C)p.r(U)p.r(T)p.r(T)}|RNA2{r(A)p.r(G)p.r(A)p.r(G)p.r(C)p.m(U)p.r(G)p.r(A)p.r(U)p.r(C)p.m(C)p.m(A)p.r(C)p.r(C)p.r(G)p.r(C)p.r(U)p.r(U)p.r(U)p.r(T)p.r(T)}$$$RNA1{StrandType:ss}|RNA2{StrandType:as}$	63%
RNA1{r(U)p.r(U)p.m(A)p.m(C)p.r(A)p.r(A)p.r(A)p.r(G)p.r(G)p.r(A)p.r(U)p.r(C)p.r(U)p.r(C)p.r(C)p.r(U)p.r(C)p.r(C)p.r(C)p.r(T)p.r(T)}|RNA2{r(G)p.r(G)p.r(G)p.r(A)p.r(G)p.r(G)p.r(A)p.r(G)p.r(A)p.r(U)p.r(C)p.r(C)p.r(U)p.r(U)p.r(U)p.r(G)p.m(U)p.r(A)p.r(A)p.r(T)p.r(T)}$$$RNA1{StrandType:ss}|RNA2{StrandType:as}$	74%
RNA1{[s4r](A)p.[s4r](A)p.[s4r](A)p.[s4r](C)p.[s4r](A)p.[s4r](U)p.r(G)p.r(C)p.r(A)p.r(G)p.r(A)p.r(A)p.r(A)p.[s4r](A)p.[s4r](U)p.[s4r](G)p.[s4r](C)p.[s4r](U)p.[s4r](G)p.r(T)p.r(T)}|RNA2{r(C)p.r(A)p.r(G)p.r(C)p.r(A)p.r(U)p.r(U)p.r(U)p.r(U)p.r(C)p.r(U)p.r(G)p.r(C)p.r(A)p.r(U)p.[s4r](G)p.[s4r](U)p.[s4r](U)p.[s4r](U)p.r(T)p.r(T)}$$$RNA1{StrandType:ss}|RNA2{StrandType:as}$	84.4%
RNA1{r(A)p.r(A)p.r(C)p.r(U)p.r(U)p.r(C)p.r(U)p.r(G)p.r(G)p.r(G)p.r(A)p.r(G)p.r(C)p.r(C)p.r(U)p.r(C)p.m(C)p.r(A)p.r(A)p.r(T)p.r(T)}|RNA2{r(U)p.r(U)p.r(G)p.r(G)p.r(A)p.r(G)p.r(G)p.r(C)p.r(U)p.r(C)p.r(C)p.m(C)p.r(A)p.r(G)p.r(A)p.r(A)p.r(G)p.r(U)p.r(U)p.r(T)p.r(T)}$$$RNA1{StrandType:ss}|RNA2{StrandType:as}$	73%
RNA1{m(G)p.r(G)p.m(C)p.r(C)p.m(U)p.r(U)p.m(U)p.r(C)p.m(U)p.r(C)p.m(U)p.r(C)p.m(U)p.r(A)p.m(G)p.r(A)p.m(U)p.r(A)p.m(U)p.r(T)p.r(T)}|RNA2{r(A)p.r(U)p.r(A)p.r(U)p.r(C)p.r(U)p.r(A)p.r(G)p.r(A)p.r(G)p.r(A)p.r(G)p.r(A)p.r(A)p.r(A)p.m(G)p.r(G)p.r(C)p.r(C)p.r(T)p.r(T)}$$$RNA1{StrandType:ss}|RNA2{StrandType:as}$	80%
RNA1{m(C)p.r(G)p.m(G)p.r(A)p.m(U)p.r(C)p.m(U)p.r(A)p.m(C)p.r(A)p.m(C)p.r(C)p.m(U)p.r(U)p.m(C)p.r(A)p.m(A)p.r(G)p.m(A)p.r(T)p.r(T)}|RNA2{r(U)p.r(C)p.r(U)p.r(U)p.r(G)p.r(A)p.r(A)p.r(G)p.r(G)p.r(U)p.r(G)p.r(U)p.m(A)p.r(G)p.m(A)p.r(U)p.m(C)p.r(C)p.m(G)p.r(T)p.r(T)}$$$RNA1{StrandType:ss}|RNA2{StrandType:as}$	46%
RNA1{r(G)p.r(G)p.r(C)p.r(C)p.r(U)p.r(U)p.r(U)p.r(C)p.r(A)p.r(C)p.r(U)p.r(A)p.r(C)p.r(U)p.r(C)p.r(C)p.r(U)p.r(A)p.r(C)p.d(T)p.d(T)}|RNA2{r(G)p.r(U)p.r(A)p.r(G)p.r(G)p.r(A)p.r(G)p.r(U)p.r(A)p.r(G)p.r(U)p.r(G)p.r(A)p.r(A)p.r(A)p.r(G)p.r(G)p.r(C)p.r(C)p.d(T)p.d(T)}$$$RNA1{StrandType:ss}|RNA2{StrandType:as}$	36%
RNA1{r(A)p.r(A)p.r(G)p.r(G)p.r(A)p.r(G)p.r(A)p.m(U)p.m(C)p.r(A)p.r(A)p.m(C)p.r(A)p.m(U)p.m(U)p.m(U)p.m(U)p.m(C)p.r(A)p.r(T)p.r(T)}|RNA2{m(U)p.r(G)p.r(A)p.r(A)p.r(A)p.r(A)p.m(U)p.r(G)p.r(U)p.r(U)p.r(G)p.r(A)p.m(U)p.m(C)p.m(U)p.m(C)p.m(C)p.m(U)p.m(U)p.r(T)p.r(T)}$$$RNA1{StrandType:ss}|RNA2{StrandType:as}$	53% and 74%
